Patent US10150728B2, “Alkylene derivatives” (Shionogi & Co., Ltd., priority 2013, dated 2018)

What follows are molecules tested against recombinant human ACC2 (Homo sapiens (Human), UniProt O00763) (assay: Measurement of inhibitory activity on human ACC2 (MALDI-TOF MS, acetyl CoA to malonyl CoA conversion)). Conditions: Table 154.
recombinant human ACC2, sequence (O00763 27-2458): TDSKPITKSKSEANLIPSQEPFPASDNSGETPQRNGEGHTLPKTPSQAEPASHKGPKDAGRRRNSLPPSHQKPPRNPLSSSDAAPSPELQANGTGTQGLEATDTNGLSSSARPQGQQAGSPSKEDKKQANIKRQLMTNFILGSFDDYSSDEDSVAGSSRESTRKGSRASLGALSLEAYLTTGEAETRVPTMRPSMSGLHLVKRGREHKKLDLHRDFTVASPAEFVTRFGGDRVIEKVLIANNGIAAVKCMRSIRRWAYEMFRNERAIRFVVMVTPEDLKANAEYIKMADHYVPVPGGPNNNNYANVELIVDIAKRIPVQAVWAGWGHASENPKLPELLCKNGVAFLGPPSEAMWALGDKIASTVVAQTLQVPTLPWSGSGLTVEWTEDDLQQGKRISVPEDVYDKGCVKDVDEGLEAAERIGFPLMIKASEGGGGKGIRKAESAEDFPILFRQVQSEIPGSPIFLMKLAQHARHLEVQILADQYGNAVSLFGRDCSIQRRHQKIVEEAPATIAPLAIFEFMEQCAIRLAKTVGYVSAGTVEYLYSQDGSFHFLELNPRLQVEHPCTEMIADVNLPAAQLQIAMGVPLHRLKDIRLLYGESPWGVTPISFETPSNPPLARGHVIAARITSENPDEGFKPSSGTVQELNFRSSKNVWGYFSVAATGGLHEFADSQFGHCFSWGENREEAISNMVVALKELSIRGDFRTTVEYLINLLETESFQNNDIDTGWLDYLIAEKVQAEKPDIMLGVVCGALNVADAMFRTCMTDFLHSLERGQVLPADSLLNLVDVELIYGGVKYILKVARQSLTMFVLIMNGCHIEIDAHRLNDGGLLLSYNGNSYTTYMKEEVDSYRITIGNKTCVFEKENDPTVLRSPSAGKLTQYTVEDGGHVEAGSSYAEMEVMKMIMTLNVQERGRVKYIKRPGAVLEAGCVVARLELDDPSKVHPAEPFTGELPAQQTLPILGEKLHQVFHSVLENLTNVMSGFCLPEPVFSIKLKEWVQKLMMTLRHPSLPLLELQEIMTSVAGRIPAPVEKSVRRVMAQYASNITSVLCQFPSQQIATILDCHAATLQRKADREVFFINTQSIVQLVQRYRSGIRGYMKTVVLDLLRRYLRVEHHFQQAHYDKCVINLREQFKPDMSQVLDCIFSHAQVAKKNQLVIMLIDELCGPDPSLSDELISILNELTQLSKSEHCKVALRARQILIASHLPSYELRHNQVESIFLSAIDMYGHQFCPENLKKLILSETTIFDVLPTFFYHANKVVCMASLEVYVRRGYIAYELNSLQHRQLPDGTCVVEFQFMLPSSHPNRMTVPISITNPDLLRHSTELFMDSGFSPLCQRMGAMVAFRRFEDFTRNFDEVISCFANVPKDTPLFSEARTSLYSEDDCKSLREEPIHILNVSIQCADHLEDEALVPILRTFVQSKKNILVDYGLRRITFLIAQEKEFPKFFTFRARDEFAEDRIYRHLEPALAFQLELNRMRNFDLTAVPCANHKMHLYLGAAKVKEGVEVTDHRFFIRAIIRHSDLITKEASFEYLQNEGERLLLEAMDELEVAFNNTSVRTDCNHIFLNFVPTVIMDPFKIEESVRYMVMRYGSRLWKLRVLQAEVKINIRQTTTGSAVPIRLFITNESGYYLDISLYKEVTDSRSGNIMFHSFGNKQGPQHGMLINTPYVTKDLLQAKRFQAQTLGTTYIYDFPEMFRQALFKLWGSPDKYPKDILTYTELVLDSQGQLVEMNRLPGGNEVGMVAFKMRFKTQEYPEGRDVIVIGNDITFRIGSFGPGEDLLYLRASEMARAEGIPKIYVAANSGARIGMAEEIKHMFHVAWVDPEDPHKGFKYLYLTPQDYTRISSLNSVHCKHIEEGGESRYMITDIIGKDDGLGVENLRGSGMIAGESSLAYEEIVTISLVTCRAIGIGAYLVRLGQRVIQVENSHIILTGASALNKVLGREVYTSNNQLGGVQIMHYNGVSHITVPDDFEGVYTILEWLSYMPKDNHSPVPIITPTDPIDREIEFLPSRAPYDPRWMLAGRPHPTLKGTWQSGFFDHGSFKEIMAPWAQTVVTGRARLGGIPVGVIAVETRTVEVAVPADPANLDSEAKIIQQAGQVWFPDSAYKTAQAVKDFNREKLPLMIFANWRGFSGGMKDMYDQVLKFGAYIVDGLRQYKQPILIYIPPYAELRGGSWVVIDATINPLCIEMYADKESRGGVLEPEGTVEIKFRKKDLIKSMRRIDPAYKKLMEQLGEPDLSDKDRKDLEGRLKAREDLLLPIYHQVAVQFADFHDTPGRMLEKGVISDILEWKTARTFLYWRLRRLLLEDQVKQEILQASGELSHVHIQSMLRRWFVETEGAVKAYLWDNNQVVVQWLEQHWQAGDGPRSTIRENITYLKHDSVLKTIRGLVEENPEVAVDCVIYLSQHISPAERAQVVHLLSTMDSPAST
Format: biochemical
In short: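 His-tagged human ACC2 (residues 27–2458) from baculovirus-infected Sf-9 cells was preincubated 1 h in pH 7.4 HEPES-KOH buffer with MgCl2, 6-10 mM potassium citrate, glutathione and BSA. Substrate solution held 1 mM ATP, 0.8 mM acetyl CoA and 25-50 mM bicarbonate. After 1–3 h at room temperature, malonyl CoA/(malonyl+acetyl CoA) was read by negative-mode MALDI-TOF MS; citrate, bicarbonate and time varied by enzyme lot.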
With `CC(=O)N[C@@H](C)CO[C@H]1C[C@H](COc2ccc3nc(C(C)(C)O)sc3c2F)C1` [Compound I-099] the IC50 was 0.148 µM. `CC(=O)N[C@@H](C)CO[C@H]1CC[C@H](Oc2ccc3nc(C(C)(F)F)sc3c2F)CC1` [Compound I-053] was tested, and the IC50 was 0.012 µM. `CC(C)c1nc2ccc(Oc3ccc(OC[C@H](C)NC(=O)CO)nc3)c(Cl)c2s1` [Compound I-025] was tested, and the IC50 was 0.652 µM. In the case of `CC(=O)N[C@@H](C)CO[C@H]1CC[C@H](Oc2ccc3nc(C(C)C)sc3c2F)CC1` [Compound I-042], the IC50 is reported as 0.015 µM. Molecule `CC(=O)N[C@@H](C)CO[C@H]1CC[C@H](Oc2ccc3nc(C(C)C)sc3c2Cl)CC1` [Compound I-046] has an IC50 of 0.213 µM. Work on `CCOc1nc2ccc(O[C@H]3CC[C@H](OC[C@H](C)NC(C)=O)CC3)c(F)c2s1` [Compound I-055] yielded an IC50 of 0.013 µM. Work on `CCOc1nc2cc(Cl)c(OC[C@H]3C[C@H](OC[C@H](C)NC(C)=O)C3)cc2s1` [Compound I-100] yielded an IC50 of 0.027 µM. In the case of `CC(=O)N[C@@H](C)COc1cnc(Oc2ccc3nc(C(C)(F)F)sc3c2C#N)cn1` [Compound I-041], the IC50 is reported as 0.102 µM. `CC(=O)N[C@@H](C)COc1ccc(Oc2cc(F)c3nc(C(C)C)sc3c2Cl)cn1` [Compound I-029] was tested, and the IC50 was 0.068 µM.

Same assay, conditions: Tables 155-159
`CC(=O)N[C@@H](C)CO[C@H]1C[C@H](COc2nc3sc(OCC(F)F)nc3cc2F)C1` [Compound I-180] showed an IC50 of 0.021 µM. For `CC(=O)N[C@@H](C)CO[C@H]1C[C@H](COc2ncnc(OCc3cscn3)c2Cl)C1` [Compound I-412], the IC50 was 0.042 µM. For `CC(=O)N[C@@H](C)CO[C@H]1C[C@H](COc2ccc3nc(N4CC(F)(F)C(F)(F)C4)sc3n2)C1` [Compound I-254], the IC50 was 0.02 µM. `CCOc1ccc2nc(O[C@H]3CC[C@H](OC[C@H](C)NC(C)=O)CC3)n(C)c2c1C#N` [Compound I-720] gave an IC50 of 0.775 µM. `CCOc1cc(Cl)c2nc(O[C@H]3CC[C@H](OC[C@H](C)NC(C)=O)CC3)n(C)c2c1` [Compound I-692] gave an IC50 of 0.034 µM. For `CC(=O)N[C@@H](C)CO[C@H]1CC[C@H](Oc2cc3sc(OCC(F)F)nc3cn2)CC1` [Compound I-185], the IC50 was 0.044 µM. `CC(=O)N[C@@H](C)CO[C@H]1CC[C@H](Oc2ncc3nc(OCC4(F)COC4)sc3c2F)CC1` [Compound I-274] showed an IC50 of 0.09 µM. `C[C@@H](CO[C@H]1CC[C@H](Oc2cc3sc(OCC4CC4(F)F)nc3cn2)CC1)NC(=O)CO` (stereo partly shown) [Compound I-290] showed an IC50 of 0.082 µM. For `CC(=O)N[C@@H](C)CO[C@H]1CC[C@H](Oc2nc3cnc(OCC(F)F)c(F)c3s2)CC1` [Compound I-552], the IC50 was 0.013 µM. Molecule `CC(=O)N[C@@H](C)CO[C@H]1CC[C@H](Oc2ccc3nc(CCC(F)(F)F)n(C)c3n2)CC1` [Compound I-515] has an IC50 of 0.041 µM. `CC(=O)N[C@@H](C)CO[C@H]1C[C@H](COc2ccc3nc(N4CC[C@@H](F)C4)sc3n2)C1` [Compound I-287] was tested, and the IC50 was 0.051 µM. For `CC(=O)N[C@@H](C)CO[C@H]1CC[C@H](Oc2nc3cnc(OC4CC4)c(Cl)c3n2C)CC1` [Compound I-705], the IC50 was 0.009 µM. Molecule `CC(=O)N[C@@H](C)CO[C@H]1CC[C@H](Oc2nc3ccc(OC(C)C)c(F)c3n2C)CC1` [Compound I-602] has an IC50 of 0.012 µM. For `CC(=O)N[C@@H](C)CO[C@H]1C[C@](C)(COc2ccc3nc(OC4CC4)sc3n2)C1` [Compound I-292], the IC50 was 0.052 µM. In the case of `CC(=O)N[C@@H](C)CO[C@H]1C[C@H](COc2nccc3cc(F)ccc23)C1` [Compound I-334], the IC50 is reported as 0.179 µM. Molecule `CC(=O)N[C@@H](C)CO[C@H]1C[C@H](COc2ccc3nc(N4CCCC4)sc3c2F)C1` [Compound I-270] has an IC50 of 0.116 µM. With `CC(=O)N[C@@H](C)CO[C@H]1C[C@H](COc2nccc(OCC3COC3)c2Cl)C1` [Compound I-374] the IC50 was 0.637 µM. Work on `C[C@@H](CC[C@@H]1CC[C@@H](Oc2nc3c(F)cc(OCC(F)F)c(Cl)c3n2C)CO1)NC(N)=O` [Compound I-674] yielded an IC50 of 0.007 µM. `CCOc1ccc2c(c1)nc(O[C@H]1CC[C@H](OC[C@H](C)NC(C)=O)CC1)n2C` [Compound I-564] was tested, and the IC50 was 0.385 µM. In the case of `CC(=O)N[C@@H](C)CO[C@H]1C[C@H](COc2ncnc(-n3oc4ccccc4c3=O)c2Cl)C1` [Compound I-398], the IC50 is reported as 0.115 µM. Molecule `CC(=O)N[C@@H](C)CO[C@H]1C[C@H](COc2ncnc(OCc3ccc(C(F)(F)F)cc3)c2Cl)C1` [Compound I-349] has an IC50 of 0.039 µM. Work on `CC(=O)N[C@@H](C)CO[C@H]1C[C@H](COc2nccc(OCC3CC3C)c2Cl)C1` (stereo partly shown) [Compound I-369] yielded an IC50 of 0.019 µM. `CC(=O)N[C@@H](C)CO[C@H]1CC[C@H](Oc2nc3ccc(Br)cc3s2)CC1` [Compound I-547] showed an IC50 of 0.104 µM. `CC(=O)N[C@@H](C)CO[C@H]1C[C@H](COc2ncnc3c2c(C#N)cn3CC2CC2)C1` [Compound I-427] was tested, and the IC50 was 0.27 µM. Molecule `CCOc1nc2cc(F)c(OC[C@H]3C[C@H](OC[C@H](C)NC(C)=O)C3)nc2s1` [Compound I-165] has an IC50 of 0.007 µM. In the case of `CC(=O)N[C@@H](C)CO[C@H]1C[C@H](COc2ccc3nc(N4CCC(F)(F)C4)sc3n2)C1` [Compound I-228], the IC50 is reported as 0.027 µM. For `CC(=O)N[C@@H](C)CO[C@H]1C[C@H](COc2ncnc(NCc3ccc(Cl)cc3)c2Cl)C1` [Compound I-344], the IC50 was 0.013 µM. `CC(=O)N[C@@H](C)CO[C@H]1C[C@H](COc2ncnc(OCC3CC3(F)F)c2Cl)C1` (stereo partly shown) [Compound I-356] showed an IC50 of 0.066 µM. For `CC(=O)N[C@@H](C)CO[C@H]1CC[C@H](Oc2ncc(-c3ncc(C(C)C)cn3)cc2F)CC1` [Compound I-529], the IC50 was 0.172 µM. `CC(=O)N[C@@H](C)CO[C@H]1CC[C@H](Oc2nc3c(F)c(C)c(OCC(F)F)c(F)c3n2C)CC1` [Compound I-717] gave an IC50 of 0.015 µM. For `CC(=O)N[C@@H](C)CO[C@H]1CC[C@H](Oc2nc3c(Cl)ccc(F)c3n2C)CC1` [Compound I-638], the IC50 was 0.14 µM. With `CC(=O)N[C@@H](C)CO[C@H]1C[C@H](COc2nccc3c2cnn3CC2CC2)C1` [Compound I-381] the IC50 was 0.155 µM. Molecule `CC(=O)N[C@@H](C)CO[C@H]1CC[C@H](Oc2ccc3nc(OCc4ccccc4)n(C)c3n2)CC1` [Compound I-501] has an IC50 of 0.009 µM. With `CC(=O)N[C@@H](C)CO[C@H]1C[C@H](COc2ncnc(OCc3ccc(C)cn3)c2Cl)C1` [Compound I-403] the IC50 was 0.043 µM. For `CC(=O)N[C@@H](C)CO[C@H]1C[C@H](COc2ncnc(OCc3ccc(Cl)nn3)c2Cl)C1` [Compound I-361], the IC50 was 0.57 µM. `CC(=O)N[C@@H](C)CO[C@H]1C[C@H](COc2ncnc(OCc3ccccc3)c2F)C1` [Compound I-383] gave an IC50 of 0.008 µM. Work on `CC(=O)N[C@@H](C)CO[C@H]1CC[C@H](Oc2cc3sc(OC[C@@H](C)F)nc3cn2)CC1` [Compound I-262] yielded an IC50 of 0.053 µM. Work on `CC(=O)N[C@@H](C)CO[C@H]1C[C@H](COc2nccc3c2CCN3CC2CC2)C1` [Compound I-458] yielded an IC50 of 0.032 µM. With `CCOc1nc2cc(Cl)c(O[C@H]3CC[C@H](OC[C@H](C)NC(C)=O)CC3)nc2n1C` [Compound I-510] the IC50 was 0.028 µM. With `CC(=O)N[C@@H](C)CO[C@H]1C[C@H](COc2nccc(-c3ncc(F)cn3)c2F)C1` [Compound I-311] the IC50 was 0.106 µM. `CC(=O)N[C@@H](C)CO[C@H]1C[C@H](COc2ccc3nc(OC4CCSC4)sc3n2)C1` (stereo partly shown) [Compound I-249] gave an IC50 of 0.008 µM. Work on `CC(=O)N[C@@H](C)[C@@H](C)O[C@H]1CC[C@H](Oc2nc3c(F)cc(OCC(F)F)c(F)c3n2C)CC1` [Compound I-716] yielded an IC50 of 0.17 µM. `CC(=O)N[C@@H](C)CO[C@H]1CC[C@H](Oc2nc3c(F)cc(OCC(F)F)c(F)c3n2C)CC1` [Compound I-741] was tested, and the IC50 was 0.007 µM. `CC(=O)N[C@@H](C)CO[C@H]1C[C@H](COc2nccc(-c3ccc(F)cc3)c2Cl)C1` [Compound I-310] was tested, and the IC50 was 0.034 µM. `C[C@@H](CO[C@H]1CC[C@H](Oc2ccc3nc(C(C)(F)F)sc3c2F)CC1)NS(C)(=O)=O` [Compound I-142] showed an IC50 of 0.181 µM. Work on `CC(=O)N[C@@H](C)CO[C@H]1C[C@H](COc2nccc(N3CCC(F)(F)C3)c2Cl)C1` [Compound I-364] yielded an IC50 of 0.044 µM. `CC(=O)N[C@@H](C)CO[C@H]1C[C@H](COc2ccc3nc(N4CCCCC4)sc3n2)C1` [Compound I-265] showed an IC50 of 0.016 µM. Work on `CC(=O)N[C@@H](C)CO[C@H]1C[C@H](COc2ccc3nc(OCC4CC4)sc3n2)C1` [Compound I-308] yielded an IC50 of 0.006 µM. Work on `CC(=O)N[C@@H](C)CO[C@H]1CC[C@H](Oc2nc3cnc(OCC4CC4)c(Cl)c3n2C)CC1` [Compound I-662] yielded an IC50 of 0.005 µM. `CCOc1nc2c(Cl)c(F)c(OC[C@H]3C[C@H](OC[C@H](C)NC(C)=O)C3)nc2s1` [Compound I-214] was tested, and the IC50 was 0.039 µM. `CC(=O)N[C@@H](C)CO[C@H]1CC[C@H](Oc2ccc3nc(N4CCC(F)(F)CC4)sc3c2F)CC1` [Compound I-188] showed an IC50 of 0.041 µM. `C[C@@H](CO[C@H]1CC[C@H](Oc2ncc3nc(OC4CC4)sc3c2F)CC1)NC(N)=O` [Compound I-285] showed an IC50 of 0.038 µM. With `CC(=O)N[C@@H](C)CO[C@H]1CC[C@H](Oc2ccc3nc(OCC(F)F)sc3c2F)CC1` [Compound I-123] the IC50 was 0.015 µM. `CC(=O)N[C@@H](C)CO[C@H]1CC[C@H](Oc2ncc3nc(N4CC(F)C4)sc3c2F)CC1` [Compound I-235] showed an IC50 of 0.022 µM. With `CC(=O)N[C@@H](C)CO[C@H]1C[C@H](COc2ncnc3c2ccn3C(C)C2CC2)C1` (stereo partly shown) [Compound I-362] the IC50 was 0.13 µM. `CC(=O)N[C@@H](C)CO[C@H]1C[C@H](COc2ccc3nc(OC4CC4)sc3c2F)C1` [Compound I-154] was tested, and the IC50 was 0.017 µM. With `CC(=O)N[C@@H](C)CO[C@H]1CC[C@H](Oc2nc3cc(C(F)(F)F)ccc3n2C)CC1` [Compound I-587] the IC50 was 0.087 µM. Molecule `CC(=O)N[C@@H](C)CO[C@H]1C[C@H](COc2ncnc3c2ccn3-c2ccccc2)C1` [Compound I-448] has an IC50 of 0.4 µM. `CCOc1nc2ccc(OC[C@]3(F)C[C@H](OC[C@H](C)NC(C)=O)C3)nc2s1` [Compound I-225] gave an IC50 of 0.048 µM. For `CC(=O)N[C@@H](C)CO[C@H]1C[C@H](COc2nccc3c2ccn3Cc2ccccc2)C1` [Compound I-329], the IC50 was 0.014 µM. In the case of `CC(=O)N[C@@H](C)CO[C@H]1C[C@](F)(COc2ccc3nc(C(C)(F)F)sc3c2F)C1` [Compound I-136], the IC50 is reported as 0.087 µM.
